# Assay results: ChEMBL document CHEMBL5727596, “Tetrahydroisoquinoline derivatives useful as inhibitors of diacylglyceride O-acyltransferase 2” (2020)
# Target: T1, Diacylglycerol O-acyltransferase 2 (Homo sapiens, UniProt Q96PD7)
# T1 sequence (Q96PD7 whole entry): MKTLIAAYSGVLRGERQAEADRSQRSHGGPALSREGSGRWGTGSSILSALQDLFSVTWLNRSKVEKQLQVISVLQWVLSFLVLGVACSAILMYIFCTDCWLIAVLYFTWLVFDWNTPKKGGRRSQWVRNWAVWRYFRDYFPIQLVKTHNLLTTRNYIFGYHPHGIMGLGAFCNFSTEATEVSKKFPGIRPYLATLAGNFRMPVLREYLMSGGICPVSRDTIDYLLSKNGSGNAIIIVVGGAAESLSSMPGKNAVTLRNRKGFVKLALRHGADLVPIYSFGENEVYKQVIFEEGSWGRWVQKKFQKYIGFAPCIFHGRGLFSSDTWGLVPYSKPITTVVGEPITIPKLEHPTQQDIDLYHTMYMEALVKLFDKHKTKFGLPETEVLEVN
# Test: Enzymatic Activity Assay: DGAT2 activity was determined by measuring the amount of enzymatic product triolein (1,2,3-Tri(cis-9-octadecenoyl)glycerol) using the membrane prep mentioned above. The assay was carried out in deep well 384 plates in a final volume of 40 μL at room temperature. The assay mixture contained the following: assay buffer (100 mM Tris.Cl, pH 7.0, 20 mM MgCl2, 5% ethanol), 25 μM of diolein, 10 μM of oleoyl-CoA and 10 ng/μL of DGAT2 membrane.
row,SMILES,IC50
1,COc1cccc(-c2ccc(CNC(=O)[C@@H]3C[C@H]3c3ccccc3)c3c2CCN(C(=O)NC2CC2)C3)c1 (mixture of isomers),0.0226 µM
2,COC(=O)c1cccc(-c2ccc(CNC(=O)C3CC3c3ccccc3)c3c2CCN(Cc2ccncc2)C3)c1 (mixture of isomers),2.41 µM
3,COC(=O)c1cccc(-c2ccc(CNC(=O)C3CC3c3ccccc3)c3c2CCN(C(=O)c2ccccn2)C3)c1 (mixture of isomers),0.249 µM
4,COC(=O)c1cccc(-c2ccc(CNC(=O)C3CC3c3ccccc3)c3c2CCN(Cc2cc(C)n(C4CC4)c2C)C3)c1 (mixture of isomers),2.8 µM
5,CCCCC(CC)CNC(=O)N1CCc2c(-c3cccc(OC)c3)ccc(CNC(=O)[C@@H]3C[C@H]3c3ccccc3)c2C1 (relative stereo),0.249 µM

# More lines, now with the values ahead:
row,IC50,SMILES
1,0.0238 µM,COc1cccc(-c2ccc(CNC(=O)[C@@H]3C[C@H]3c3ccccc3)c3c2CCN(C(=O)NC(C)C(C)C)C3)c1 (mixture of isomers)
2,0.723 µM,COc1cccc(-c2ccc(CNC(=O)[C@H]3C[C@@H]3c3nc(C)no3)c3c2CCN(C(=O)C(C)(C)O)C3)c1 (relative stereo)
3,0.0083 µM,CCCNC(=O)N1CCc2c(-c3cccc(OC)c3)ccc(CNC(=O)[C@@H]3C[C@H]3c3nc(C)no3)c2C1 (relative stereo)
4,0.0058 µM,Cc1noc([C@H]2C[C@@H]2C(=O)NCc2ccc(-c3cccc(C(F)(F)F)c3)c3c2CN(C(=O)NC(C)(C)C)CC3)n1 (relative stereo)
5,0.512 µM,Cc1noc([C@@H]2C[C@H]2C(=O)NCc2ccc(-c3cncc(C(C)(C)O)c3)c3c2CN(C(=O)NC(C)(C)C)CC3)n1 (relative stereo)
